Test results as given in paper PMC10144058, “New Hybrid Scaffolds Based on 5-FU/Curcumin: Synthesis, Cytotoxic, Antiproliferative and Pro-Apoptotic Effect” (Pharmaceutics, 2023).
Read-outs that look alike come from different tables or passages of the source.

Tests used:
HL-60 cell line = system: HL-60 cell line; set-up: method as in PMID 33213229; details: cited from earlier work
K562 cell line = system: K562 cell line; set-up: method as in PMID 33213229; details: cited from earlier work
U937 cell line = system: U937 cell line; set-up: method as in PMID 33213229; details: cited from earlier work
HCT116 cells = system: HCT116 cells; set-up: method as in PMID 31097715; details: cited from earlier work
[1] = system: HCEC non-malignant epithelial cells; set-up: method as in PMID 31097715; details: HCEC non-malignant corneal epithelial cells; cited from earlier work
SW480 cells [2] = test: Cell viability, sulforhodamine B (SRB) assay; type: cell-based; details: Homo sapiens
Description: (§1) SW480 (colon adenocarcinoma) and SW620 (derived metastatic) malignant cell lines, and the non-malignant lines HaCaT (human keratinocytes) and CHO-K1 (Chinese Hamster Ovary), were obtained from the European Collection of Authenticated Cell Cultures (ECACC, Porton Down, Salisbury, UK). The cells were maintained in Dulbecco’s Modified Eagle’s Medium (DMEM), supplemented with 10% equine serum previously inactivated at 56 °C, 1% penicillin/streptomycin, and 1% non-essential amino acids, and incubated at 37 °C in an atmosphere with 5% CO2. To carry out the experiments, the serum was diluted to 3% and additionally supplemented with […] insulin, […] transferrin, and 5 ng/mL selenium. Cells were used for experimentation when they reached 80–90% confluence, using a 1X trypsin enzymatic disintegration method. To avoid contamination by Mycoplasma spp., cell cultures were periodically analyzed by polymerase chain reaction (PCR).
(§2) Cell viability was evaluated with a sulforhodamine B (SRB) assay. This technique provides an index of protein contents in living and adherent cells, whose optical density can be related to cell concentration. Initially, 20,000 cells were seeded per well in 96-well culture plates. An initial adherence period of 24 h was performed at 37 °C, 5% CO2, and after this, the medium was replaced by another that contained the hybrid compounds in different concentrations. Then, the cells were left incubating for 24 and 48 h under the same conditions previously described. After the respective incubation times, the cells were fixed with trichloroacetic acid (50% v/v) for 1 h at 4 °C and stained with 0.4% (p/v) of SRB. Subsequently, washings with 1% acetic acid were carried out to eliminate possible nonspecific bindings, and after solubilization with 10 mM Tris-base, the absorbance was read at 492 nm in a microplate reader (Mindray MR-96A). All the experiments were carried out in triplicate.

HaCaT cells = test: Cell viability, sulforhodamine B (SRB) assay, non-malignant cells; type: cell-based; details: Homo sapiens
Description: as §1, §2

SW620 cells [3] = test: Cell viability, sulforhodamine B (SRB) assay; type: cell-based, human; details: Homo sapiens
Description: as §1, §2

CHO-K1 cells = test: Cell viability, sulforhodamine B (SRB) assay, non-malignant cells; type: cell-based, Chinese Hamster; details: Cricetulus griseus
Description: as §1, §2

SW480 cells [4] = test: Antiproliferative activity (SRB, 0-8 days); type: cell-based; details: Homo sapiens, read-out: Cell Viability (%) ± SE; for viability at 2.5 µM: SW480, 2.5 µM; for viability at 40 µM: SW480, 40 µM
Description: For this experiment, the same colorimetric method (SRB) from the evaluation of cell viability was used, although with some modifications. Initially, 2500 cells per well were seeded in 96-well culture plates, and a 24 h adherence period was performed at 37 °C in a 5% CO2 atmosphere. […] For this assay, incubation periods of 0, 2, 4, 6, and 8 days were used, and the fixation, staining, and reading conditions were the same as those previously described for the cytotoxicity assay.

SW480 cells [5] = test: Mitochondrial membrane potential (DiOC6/PI, flow cytometry); type: cell-based, human; details: SW480, treated with IC50, 48 h
Description: The fluorescent dyes PI and DIOC6 (3,3’-dihexyloxacarbocyanine iodide) were used to observe the depolarization of the mitochondrial membrane as well as possible cell membrane damage. For this method, 250,000 cells/well were initially seeded in 6-well culture plates during a 24 h adherence period at 37 °C in a 5% CO2 atmosphere. […] After treatment, cells were obtained by mechanical disaggregation, stained with DiOC6 and PI, and incubated at room temperature for 30 min in the dark. Ten thousand events were analyzed by flow cytometry with excitation at 488 nm and emission detection with green (530/15 nm) and red (610/20 nm) filters.

[6] = system: caspase 3, caspase 7, caspase 8 and p53 in SW480 cells; test: Apoptotic biomarkers (ELISA); type: cell-based, human; details: SW480, treated with IC50, 48 h, vs control
Description: To provide an approach to the possible molecular mechanisms through which the hybrid compounds induce an effect on the cell lines, different proteins related to the process of death by apoptosis were determined. For this method, 1,000,000 cells were initially seeded per Petri dish, with an adherence period of 24 h at 37 °C in a 5% CO2 atmosphere. […] Later, the consumed medium was discarded, and after the addition of the versene buffer, the cells were obtained by mechanical disaggregation. The cells were then lysed with a cell lysis buffer and centrifuged to obtain the supernatant, which was used to determine the biomarkers of interest by enzyme-linked immunosorbent assays. These ELISA kits were provided by Elabscience Biotechnology Co., Houston, TX, USA [26].

SW480 cells [7] = test: Cell cycle analysis (PI, flow cytometry); type: cell-based, human; details: SW480, treated with IC50 value, 48 h
Description: The method used for the recognition of cell cycle phases (G0/G1, S, G2/M) was based on staining with a fluorescent dye (propidium iodide—PI), as a direct relationship between fluorescence intensity and DNA content can be established. For this method, 250,000 cells/well were initially seeded in 6-well culture plates with an adherence period of 24 h at 37 °C in a 5% CO2 atmosphere. […] After treatment, cells were obtained by mechanical disaggregation, and the cell pellet was centrifuged and washed with a versene buffer. The cell pellet was fixed with 1.8 mL of cold 70% ethanol and kept at 4 °C overnight. Subsequently, two washes with a versene buffer were performed, and the pellet was resuspended in 300 µL of PBS containing 0.25 mg/mL of RNAsa and 0.1 mg/mL of PI. After a 30 min period of dark incubation, the fluorescence of 10,000 cells was analyzed using a FACS Canto II flow cytometer. The PI signal was analyzed with excitation at 488 nm using a sapphire laser, and fluorescence was detected at 610 nm. The data analysis was performed with FlowJo 10.8.1 software.

SW620 cells [8] = system: SW620 cells; set-up: method as in PMID 36297411; details: cited from earlier work

| Structure (SMILES) | IC50 (SW480 cells [2]; SW480, 24 h) | IC50 (SW480 cells [2]; SW480, 48 h) | IC50 (SW620 cells [3]; SW-620, 24 h, 24 h) | IC50 (SW620 cells [3]; SW-620, 48 h, 48 h) | melting point | IC50 (HaCaT cells; 24 h) | IC50 (HaCaT cells; 48 h) | IC50 (CHO-K1 cells; CHO-K1, 24 h) | IC50 (CHO-K1 cells; CHO-K1, 48 h) | also measured |
| --- | --- | --- | --- | --- | --- | --- | --- | --- | --- | --- |
| CC1(C)CCC(C)(C)c2cc(NC(=O)c3ccc(C(=O)OCn4cc(F)c(=O)[nH]c4=O)cc3)ccc21 [B] | – | – | – | – | – | – | – | – | – | IC50 (HL-60 cell line): 9.87 µM; IC50 (K562 cell line): 10.6 µM; IC50 (U937 cell line): 8.21 µM |
| CC1=C(CCC(=O)OCn2cc(F)c(=O)[nH]c2=O)C(=O)C(C(C)C)=CC1=O [C] | – | – | – | – | – | – | – | – | – | IC50 (HCT116 cells): 16 µM; IC50 [1]: 52 µM |
| O=c1[nH]cc(F)c(=O)[nH]1 [Compound 5-FU, 5-fluorouracil, reference compound] | 1540 ± 128 µM | 174 ± 19.1 µM | 899 ± 60.7 µM | 181 ± 18.8 µM | – | > 1000 µM | 119 ± 2.84 µM | 544 ± 52.9 µM | 173 ± 14.6 µM | – |
| COc1cc(/C=C/C(=O)CC(=O)/C=C/c2ccc(O)c(OC)c2)ccc1O [Curcumin, curcumin] | 84.6 ± 6.6 µM | 90.4 ± 1 µM | 164 ± 5.88 µM | 22.2 ± 2.37 µM | – | > 100 µM | 28.8 ± 2.33 µM | 20.2 ± 2.41 µM | 36.3 ± 4.17 µM | – |
| O=c1[nH]c(=O)n(Cc2cn(CCCCCCCCCOc3cc(O)c4c(=O)c(-c5ccc(O)cc5)coc4c3)nn2)cc1F [F] | – | – | – | – | – | – | – | – | – | IC50 (SW620 cells [8]): 36.8 ± 0.71 µM |

Second part, led by results:

| IC50 (SW480 cells [2]; SW480, 24 h) | IC50 (SW480 cells [2]; SW480, 48 h) | IC50 (SW620 cells [3]; SW-620, 24 h, 24 h) | IC50 (SW620 cells [3]; SW-620, 48 h, 48 h) | melting point | Structure (SMILES) | IC50 (HaCaT cells; 24 h) | IC50 (HaCaT cells; 48 h) | IC50 (CHO-K1 cells; CHO-K1, 24 h) | IC50 (CHO-K1 cells; CHO-K1, 48 h) | also measured |
| --- | --- | --- | --- | --- | --- | --- | --- | --- | --- | --- |
| 75.3 ± 4.65 µM | 17.4 ± 1.16 µM | > 100 µM | 45.1 ± 0.98 µM | – | COc1cc(/C=C/C(=O)c2ccc(OCCn3cc(Cn4cc(F)c(=O)[nH]c4=O)nn3)cc2)ccc1O [Compound 6a, (E)-5-fluoro-1-((1-(2-(4-(3-(4-hydroxy-3-methoxyphenyl)acryloyl)phenoxy)ethyl)-1H-1,2,3-triazol-4-yl)methyl)pyrimidine-2,4(1H,3H)-dione] | 71.8 ± 4.22 µM | 27.9 ± 2.53 µM | 82.8 ± 6.43 µM | 73.7 ± 1.07 µM | viability at 2.5 µM (SW480 cells [4]; 48 h, 2 days after plating): 97.9 ± 1.55%; viability at 40 µM (SW480 cells [4]; 48 h, 2 days after plating): 16.2 ± 2.51%; viability at 2.5 µM (SW480 cells [4]; 96 h, 4 days after plating): 81.2 ± 2.8%; viability at 40 µM (SW480 cells [4]; 96 h, 4 days after plating): 8 ± 1.81%; viability at 2.5 µM (SW480 cells [4]; 144 h, 6 days after plating): 59.5 ± 3.45%; viability at 40 µM (SW480 cells [4]; 144 h, 6 days after plating): 2.04 ± 0.35%; viability at 2.5 µM (SW480 cells [4]; 192 h, 8 days after plating): 42.8 ± 1.3%; viability at 40 µM (SW480 cells [4]; 192 h, 8 days after plating): 0%; Dioc6 High population (live cells with high membrane polarization) (SW480 cells [5]): 84.9%; Dioc6 Low population (cells that lose membrane polarization) (SW480 cells [5]): 0%; PI+ population (membrane damage or dead cells) (SW480 cells [5]): 15%; changes in the mitochondrial membrane potential (SW480 cells [5]): do not induce significant changes; levels of biomarkers (caspase 3, caspase 7, caspase 8, p53) [6]: no significant differences; Cell cycle distribution, G0/G1 (SW480 cells [7]): 53.6%; Cell cycle distribution, G2/M (SW480 cells [7]): 22.2%; Cell cycle distribution, S Phase (SW480 cells [7]): 24.1%; Cell cycle distribution, Sub G0/G1 (SW480 cells [7]): 0% |
| 48.4 ± 2.82 µM | 17.1 ± 0.8 µM | 90.2 ± 9.33 µM | 33.7 ± 1.03 µM | 124 to 129 °C | COc1cc(/C=C/C(=O)c2ccc(OCCCn3cc(Cn4cc(F)c(=O)[nH]c4=O)nn3)cc2)ccc1O [Compound 6b, (E)-5-fluoro-1-((1-(3-(4-(3-(4-hydroxy-3-methoxyphenyl)acryloyl)phenoxy)propyl)-1H-1,2,3-triazol-4-yl)methyl)pyrimidine-2,4(1H,3H)-dione] | 58.1 ± 3.3 µM | 18.4 ± 1.1 µM | 51.3 ± 2.86 µM | 46.5 ± 1.34 µM | – |
| 30.4 ± 2.69 µM | 16.4 ± 0.97 µM | 83.9 ± 8.08 µM | 28.1 ± 1.85 µM | 61 to 65 °C | COc1cc(/C=C/C(=O)c2ccc(OCCCCn3cc(Cn4cc(F)c(=O)[nH]c4=O)nn3)cc2)ccc1O [Compound 6c, (E)-5-fluoro-1-((1-(4-(4-(3-(4-hydroxy-3-methoxyphenyl)acryloyl)phenoxy)butyl)-1H-1,2,3-triazol-4-yl)methyl)pyrimidine-2,4(1H,3H)-dione] | 45.4 ± 4.18 µM | 19.1 ± 1.68 µM | 26.3 ± 2.99 µM | 30.5 ± 2.18 µM | – |
| > 100 µM | 29.7 ± 2.43 µM | > 100 µM | > 100 µM | 98 to 102 °C | COc1cc(/C=C/C(=O)c2ccc(OCCCCCCCCn3cc(Cn4cc(F)c(=O)[nH]c4=O)nn3)cc2)ccc1O [Compound 6f, (E)-5-fluoro-1-((1-(8-(4-(3-(4-hydroxy-3-methoxyphenyl)acryloyl)phenoxy)octyl)-1H-1,2,3-triazol-4-yl)methyl)pyrimidine-2,4(1H,3H)-dione] | > 100 µM | 35.1 ± 4.74 µM | > 100 µM | > 100 µM | – |
| > 100 µM | > 100 µM | > 100 µM | > 100 µM | 113 to 120 °C | COc1cc(/C=C/C(=O)c2ccc(OCCCCCCCCCn3cc(Cn4cc(F)c(=O)[nH]c4=O)nn3)cc2)ccc1O [Compound 6g, (E)-5-fluoro-1-((1-(9-(4-(3-(4-hydroxy-3-methoxyphenyl)acryloyl)phenoxy)nonyl)-1H-1,2,3-triazol-4-yl)methyl)pyrimidine-2,4(1H,3H)-dione] | > 100 µM | > 100 µM | > 100 µM | > 100 µM | – |
| > 100 µM | > 100 µM | > 100 µM | > 100 µM | 129 to 135 °C | COc1cc(/C=C/C(=O)c2ccc(OCCCCCCCCCCCCn3cc(Cn4cc(F)c(=O)[nH]c4=O)nn3)cc2)ccc1O [Compound 6h, (E)-5-fluoro-1-((1-(12-(4-(3-(4-hydroxy-3-methoxyphenyl)acryloyl)phenoxy)dodecyl)-1H-1,2,3-triazol-4-yl)methyl)pyrimidine-2,4(1H,3H)-dione] | > 100 µM | > 100 µM | > 100 µM | > 100 µM | – |
